Assay results from paper PMC6770089, “Interaction Mechanism of Flavonoids and α-Glucosidase: Experimental and Molecular Modelling Studies” (Foods, 2019).
In brackets after ≈: the same amount, converted by molar mass.

Tested on: T1, α-glucosidase
T1 construct: gene MAL12; docking used PDB 3A4A (isomaltase IMA1), not the tested protein
Assay: intrinsic fluorescence quenching, excitation […] nm
Format: binding, Saccharomyces cerevisiae
Conditions: 298 K; double-log; n = 0.9843

SMILES | Ka [L/mol]
O=c1c(O)c(-c2cc(O)c(O)c(O)c2)oc2cc(O)cc(O)c12 [compound 1, myricetin] | 77786

Same assay, conditions: 298 K; double-log; n = 1.0572

SMILES | Ka [L/mol]
O=C1c2c(O)cc(O)cc2O[C@H](c2cc(O)c(O)c(O)c2)[C@H]1O [compound 8, dihydromyricetin] | 57637

Biological target: T1, α-glucosidase
Assay: pNP-G hydrolysis, absorbance […] nm
Format: biochemical, Saccharomyces cerevisiae
Conditions: pNP-G (1 mM stock, 1 mL added), 0.1 M phosphate pH 6.8, 37 °C, 10 min preincubation

SMILES | IC50 [µg/mL]
O=c1cc(-c2ccccc2)oc2cc(O)c(O)c(O)c12 [compound 4, baicalein] | 6.75 (≈ 25 µM)
O=c1cc(-c2ccc(O)c(O)c2)oc2cc(O)cc(O)c12 [compound 5, luteolin] | 27.22 (≈ 95.1 µM)
O=c1cc(-c2ccccc2)oc2cc(O)cc(O)c12 [compound 7, chrysin] | 70.07 (≈ 276 µM)
O=C1c2c(O)cc(O)cc2O[C@H](c2cc(O)c(O)c(O)c2)[C@H]1O [compound 8, dihydromyricetin] | 85.95 (≈ 268 µM)
O=C(/C=C/c1ccccc1)c1ccc(O)cc1 [compound 10, 4′-hydroxychalcone] | 199.10 (≈ 888 µM)
C[C@@H]1O[C@@H](O[C@H]2[C@H](Oc3cc(O)c4c(c3)O[C@H](c3ccc(O)cc3)CC4=O)O[C@H](CO)[C@@H](O)[C@@H]2O)[C@H](O)[C@H](O)[C@H]1O [compound 12, naringin] | > 500
COc1ccc([C@@H]2CC(=O)c3c(O)cc(O[C@@H]4O[C@H](CO[C@@H]5O[C@@H](C)[C@H](O)[C@@H](O)[C@H]5O)[C@@H](O)[C@H](O)[C@H]4O)cc3O2)cc1O [compound 13, hesperidin] | > 500
O=C(O)[C@H]1O[C@@H](Oc2cc3oc(-c4ccccc4)cc(=O)c3c(O)c2O)[C@H](O)[C@@H](O)[C@@H]1O [compound 14, baicalin] | > 500

More lines, now with the values ahead:

IC50 [µg/mL] | SMILES
2.09 (≈ 6.57 µM) | O=c1c(O)c(-c2cc(O)c(O)c(O)c2)oc2cc(O)cc(O)c12 [compound 1, myricetin]
5.50 (≈ 19.2 µM) | O=c1c(O)c(-c2ccc(O)c(O)c2)oc2cc(O)ccc12 [compound 2, fisetin]
36.29 (≈ 142 µM) | O=C(/C=C/c1ccc(O)cc1)c1ccc(O)cc1O [compound 6, isoliquiritigenin]
123.04 (≈ 549 µM) | O=C(/C=C/c1ccc(O)cc1)c1ccccc1 [compound 9, 4-hydroxychalcone]
286.60 (≈ 948 µM) | COc1ccc([C@@H]2CC(=O)c3c(O)cc(O)cc3O2)cc1O [compound 11, hesperetin]
